Numbers after ± are expanded uncertainties.
Conditions: Crystal 2; Adiabatic calorimetry

- Triple point temperature: 235.69 ± 0.2 K
Compound: O=P([O-])([O-])[O-].[Cs+].[Mg+2] [caesium-magnesium monophosphate]

Reference: the NIST ThermoML archive (doi:10.1016/j.jct.2007.11.001)
